pIC50: −log10 of the molar value.

Experimental findings from patent US20240210412A1, “SULFONYL-TRIAZOLE COMPOUNDS USEFUL AS LIGANDS AND INHIBITORS OF PROSTAGLANDIN REDUCTASE 2” (University of Virginia Patent Foundation, priority 2021, published 2024) are described below.

Test [1] concerns the target T1, PTGR2 (Homo sapiens, UniProt Q8N8N7).
T1 construct: host or cells: HEK293T
In words: in vitro gel-based chemical proteomics competition, RJS-1027 probe. It counts as binding. The conditions noted are these: inhibitor 0.5 μM, RJS-1027 1 μM, HEK293T soluble proteome. Here is the method: Cell pellets were lysed in PBS buffer (EDTA free) by sonicating 3 times for 1 second×20% amplitude. The lysate was fractionated by centrifuging at 100,000×g for 45 min at 4° C., separating membrane and soluble fractions. Only the soluble fraction was used for in vitro and in situ experiments. Protein concentrations were measured using the Bio-Rad DC protein assay, and fractions were diluted to a concentration of 2 mg/mL in PBS. For live cell treated samples, 50 μL aliquots of proteome were used for gel experiments. For in vitro experiments, 48 μL aliquots of cell lysate were used for each inhibitor before adding 1 μL of 50× inhibitor stock (1 μM final) and incubated for 30 minutes at 37° C., then 1 μL of 50×probe stock (1 μM final) was added and the lysate incubated for 30 minutes at 37° C. […] 30 μL of each sample were separated by SDSPAGE and analyzed by in-gel fluorescence scanning for the rhodamine azide tag. […]
FIG. 9A is an image of an in vitro gel-based chemical proteomics assay using RJS-1027 (1 μM) as a probe to measure competition of binding PTGR2 with an inhibitor (0.5 μM). […] Quantitative comparison of inhibitor competition with probe labeling normalized to the negative control HHS-0101 is shown in FIG. 9B. […] Quantitative comparison of RJG-2036 competition with probe labeling normalized to the negative control HHS-0101 is shown in FIG. 9D.

Test [2] has as its target T1, PTGR2. In words: gel-based ABPP, HHS-475 probe, HEK293T cells expressing recombinant PTGR2. The conditions noted are these: 25 μM-0.1 μM, 2 h; HHS-475 25 μM 2 h; compared with AMC-0702, HHS-0701. It counts as cell-based. Here is the method: HEK293T cells at 30-50% confluency were transfected with 2.6 μg of FAH or PTGR2 plasmid DNA in a serum-free media/polyethyleneimine solution for 48 hrs. The cells were washed once with warm, sterile DPBS (1×, 5 mL), and then 10 mL of serum-free media (supplemented with 1% L-glutamine) containing either DMSO or SuTEx fragment (in DMSO) was added. After 2 hrs, the cells were treated with 100 μM of SuTEx alkyne probe (HHS-475, 10 μL of 1000× DMSO stock) and incubated for an additional 2 hrs. The media was aspirated and cells washed with cold PBS (5 mL) and harvested. Cells were spun at 500×g for 5 min at 4° C. and supernatant was removed. Pellets were resuspended in 1 mL of cold DPB S and spun at 1,400×g for 3 min at 4° C. and supernatant was removed. The cells were lysed in PBS by sonication and fractionated (100,000×g, 45 min, 4° C.). The soluble fraction was diluted to 1 mg/mL in PBS and 49 μL was used for analysis. […] The samples were analyzed by SDS-PAGE (30 μL) and imaged by in-gel fluorescence scanning.
Confirmatory studies were also performed on prostaglandin reductase 2 (PTGR2) because of its role in the reduction of the bioactive lipid, 15-keto-PGE2^[17]. […] The remaining fluorescent signal detected on PTGR2 Y100F mutant protein is likely due to probe labeling of additional tyrosine sites identified on wild-type protein.
To assess the PTGR2 inhibitory activity of AMC-0702 and AMC-0703, HEK293T cells expressing PTGR2 were pretreated with vehicle, HHS-0101 (25 μM), HHS-0701 (25 μM), AMC-0702 (25 μM-0.1 μM), or AMC-0703 (25 μM-0.1 μM) for 2 hours followed by HHS-475 probe labelling in live cells (25 μM, 2 hours). Cells were lysed and probe-modified PTGR2 in proteomes detected by copper-catalyzed azide-alkyne cycloaddition conjugation of rhodamine-azide, SDS-PAGE, and in-gel fluorescence scanning. Inhibitory activity of compounds is determined by reductions in fluorescent band intensity from HHS-475 probe labeling of proteins detected in proteomes. […]

Test [3] deals with T2, recombinant prostaglandin reductase 2 (PTGR2) (Homo sapiens, UniProt Q8N8N7).
T2 construct: host or cells: HEK293T
The test can be described thus: in situ gel-based chemical proteomics competition, RJS-1027 probe. In kind it is cell-based. The conditions noted are these: RJS-1027 1 μM, normalized to PTGR2 WT, two biological replicates, read-out: 50% inhibitory concentration (IC50), competition with probe labeling. The procedure: HEK293T cells were grown to 30-40% confluency and transiently transfected with wild type PTGR2 or Y100F PTGR2 mutant plasmid or DMSO by dissolving 20 μL of PEI (1 mg/mL) and 2.6 μg of plasmid in 0.6 mL of serum-free DMEM media. Transfected HEK293T cells were incubated at 37° C. with 5% CO2 and were harvested for in vitro experiments. For in situ experiments, cells were treated with either DMSO or inhibitors at a final concentration of 1 μM, or the indicated concentration, of inhibitors from a 1,000× stock in serum-free media. Cells were subsequently incubated at 37° C. with 5% CO2 for 2 hours, followed by treatment with DMSO or probe at a final concentration of 1 μM from a 1,000× stock in serum-free media. Cells were harvested and pelleted at 400×g for 5 min and the supernatant was decanted. […]
Cell pellets were lysed in PBS buffer (EDTA free) by sonicating 3 times for 1 second×20% amplitude. […] Protein concentrations were measured using the Bio-Rad DC protein assay, and fractions were diluted to a concentration of 2 mg/mL in PBS. […] 30 μL of each sample were separated by SDSPAGE and analyzed by in-gel fluorescence scanning for the rhodamine azide tag. […]
Anti-flag and GAPDH western blots are shown below the long gel and were performed separately. Quantitation of RJG-2036 competition with probe labeling normalized to the PTGR2 WT with RJS-1027 as a probe is shown in FIG. 10C.

T1 sequence (Q8N8N7 whole entry): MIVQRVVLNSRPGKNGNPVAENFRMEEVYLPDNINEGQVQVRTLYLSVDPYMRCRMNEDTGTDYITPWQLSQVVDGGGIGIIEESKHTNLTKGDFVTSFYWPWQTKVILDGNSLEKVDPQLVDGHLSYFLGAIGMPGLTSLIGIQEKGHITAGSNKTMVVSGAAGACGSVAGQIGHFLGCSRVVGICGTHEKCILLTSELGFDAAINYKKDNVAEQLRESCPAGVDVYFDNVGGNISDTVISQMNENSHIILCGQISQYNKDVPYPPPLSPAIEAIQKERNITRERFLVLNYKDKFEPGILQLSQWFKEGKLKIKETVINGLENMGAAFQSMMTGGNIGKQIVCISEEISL
T2 sequence (Q8N8N7 whole entry): as above

For the compound `COc1ccccc1N1CCN(C(=O)c2ccc(S(=O)(=O)n3cncn3)cc2)CC1` [AMC-0703, (4-((1H-1,2,4-triazol-1-yl)sulfonyl)phenyl)(4-(2-methoxyphenyl)piperazin-1-yl)methanone], on PTGR2 [1], the “competition of probe binding to PTGR2” value is on record as “potent inhibitors”. In addition, the “potency against PTGR2 (reduction of HHS-475 probe labeling)” value at PTGR2 [2] is listed as “highest potency against PTGR2”.
In the case of `COc1ccccc1N1CCN(C(=O)c2cccc(S(=O)(=O)n3cncn3)c2)CC1` [RJG-2036, (3-((1H-1,2,4-triazol-1-yl)sulfonyl)phenyl)(4-(2-methoxyphenyl)piperazin-1-yl)methanone], the pIC50 in test [3] was 7.05.
As for `COc1ccccc1N1CCN(C(=O)c2ccc(S(=O)(=O)n3cnc(-c4cccnc4)n3)cc2)CC1` [RJG-1189, (4-(2-methoxyphenyl)piperazin-1-yl)(4-((3-(pyridin-3-yl)-1H-1,2,4-triazol-1-yl)sulfonyl)phenyl)methanone], the “competition of probe binding to PTGR2” value on PTGR2 [1] is “potent inhibitors”.
